Patent publication US11072602B2, “Antidiabetic heterocyclic compounds” (Merck Sharp & Dohme Corp., priority 2016, dated 2021)

target: T1, human GPR40 (Homo sapiens, UniProt O14842); experiment: Inositol Phosphate Turnover (IP1) Assay; assay type: cell-based; details: HEK cells stably expressing human GPR40, 7500 cells per well, CisBio IP-One kit
T1 construct: expressed in transfected cells
Protocol: Human GPR40 stable cell-lines were generated in HEK cells. The expression plasmids were transfected using lipofectamine (Life Technologies) following manufacturer's instructions. Stable cell-lines were generated following drug selection and single cell cloning.
The assay was performed in 384-well format. HEK cells stably expressing human GPR40 were plated at 7500 cells per well in growth medium (DMEM/10% fetal calf serum). Cell plates were then incubated 16 hours at 37 degrees in a 5% CO2 incubator. Measurement of Inositol Phosphate Turnover (IP1) was performed using the CisBio IP-One kit (Part number 62IPAPEB). After the 16 hour incubation, the growth media was removed by centrifugation using the BlueWasher (AusWasher GUI Ver. v1.0.1.8) Protocol #21-“Light Dry” and 10 ul of stimulation buffer (prepared as described in the kit) was added to each well. In a separate plate, compounds were diluted in DMSO (200-fold over the final concentration in the assay well) and 50 nl was acoustically transferred to the appropriate well in the assay cell plate. The plates were then incubated for 60 minutes at 37 degrees in a 5% CO2 incubator. 10 ul of detection buffer (also prepared as described in the IP-One kit) was added to each well and the plates were incubated at room temperature for 60 minutes in the dark. The plates were then read in a Perkin Elmer EnVision or equivalent reader able to measure FRET. Fluorescent ratio of emission at 665 and 620 nm was then converted to IP1 concentration by back calculating from an IP1 standard curve prepared at the time of the assay. Data was normalized to % activity using a reference compound and EC50s determined using a standard 4-parameter fit.

T1 sequence (O14842 whole entry): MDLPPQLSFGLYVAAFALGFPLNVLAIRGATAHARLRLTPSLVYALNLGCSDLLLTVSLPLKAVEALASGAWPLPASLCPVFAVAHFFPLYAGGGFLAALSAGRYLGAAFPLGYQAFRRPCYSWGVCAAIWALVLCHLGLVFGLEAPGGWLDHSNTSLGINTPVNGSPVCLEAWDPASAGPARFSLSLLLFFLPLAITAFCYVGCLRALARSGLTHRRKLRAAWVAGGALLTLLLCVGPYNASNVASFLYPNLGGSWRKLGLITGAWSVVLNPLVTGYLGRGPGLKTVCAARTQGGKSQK

EC50	SMILES
71.4 nM	CC(c1cc(F)ccc1OC(F)(F)F)N1CC2CC1CC2C1CCc2ccc([C@H](C3CC3)[C@H](C)C(=O)O)cc2O1 (single isomer, unassigned) [Example 37, (2S,3R)-3-cyclopropyl-3-((R or S)-2-((R or S,R or S)-2-((RS)-1-(5-fluoro-2-(trifluoro-methoxy)-phenyl)ethyl)-2-aza-bicyclo[2.2.1]heptan-5-yl)-chroman-7-yl)-2-methyl-propanoic acid]
60.6 nM	C[C@H](C(=O)O)[C@H](c1ccc2c(c1)OC(C13CCN([C@H](C)c4cc(F)ccc4OC(F)(F)F)C(C1)C3)CC2)C1CC1 (single isomer, unassigned) [Example 43]
2.14 nM	C[C@H](C(=O)O)[C@H](c1ccc2c(c1)OC(C13CCN([C@H](C)c4cc(F)ccc4OC(F)(F)F)C(C1)C3)CC2)C1CC1 (single isomer, unassigned) [Example 44]
20.3 nM	C[C@H](C(=O)O)[C@H](c1ccc2c(c1)OC(C1C3COCC1CN([C@H](C)c1cc(C(F)(F)F)ccc1C(F)(F)F)C3)CC2)C1CC1 (stereo partly drawn) [Example 3, (2S,3R)-3-(2-((1R,5S)-7-((R)-1-(2,5-bis(trifluoromethyl)phenyl)ethyl)-3-oxa-7-azabicyclo[3.3.1]nonan-9-yl)chroman-7-yl)-3-cyclopropyl-2-methylpropanoic acid]
36.6 nM	C[C@H](C(=O)O)[C@H](c1ccc2c(c1)OC(C1C3COCC1CN([C@H](C)c1cc(C(F)(F)F)ccc1C(F)(F)F)C3)CC2)C1CC1 (stereo partly drawn) [Example 4, (2S,3R)-3-(2-((1R,5S)-7-((R)-1-(2,5-bis(trifluoromethyl)phenyl)ethyl)-3-oxa-7-azabicyclo[3.3.1]nonan-9-yl)chroman-7-yl)-3-cyclopropyl-2-methylpropanoic acid]
33.8 nM	C[C@H](C(=O)O)[C@H](c1ccc2c(c1)OC(C1C3COCC1CN([C@@H](C)c1cc(C(F)(F)F)ccc1C(F)(F)F)C3)CC2)C1CC1 (stereo partly drawn) [Example 5, (2S,3R)-3-(2-((1R,5S)-7-((S)-1-(2,5-bis(trifluoro-methyl)phenyl)ethyl)-3-oxa-7-azabicyclo[3.3.1]-nonan-9-yl)chroman-7-yl)-3-cyclopropyl-2-methyl-propanoic acid]
21.5 nM	C[C@H](C(=O)O)[C@H](c1ccc2c(c1)OC(C1C3COCC1CN([C@@H](C)c1cc(C(F)(F)F)ccc1C(F)(F)F)C3)CC2)C1CC1 (stereo partly drawn) [Example 6, (2S,3R)-3-(2-((1R,5S)-7-((S)-1-(2,5-bis(trifluoro-methyl)phenyl)ethyl)-3-oxa-7-azabicyclo[3.3.1]-nonan-9-yl)chroman-7-yl)-3-cyclopropyl-2-methyl-propanoic acid]
1.28 nM	C[C@H](C(=O)O)[C@H](c1ccc2c(c1)OC(C1C[C@@H]3C[C@@H]1CN3[C@@H](C)c1cc(C(F)(F)F)ccc1C(F)(F)F)CC2)C1CC1 (stereo partly drawn) [Example 16, (2S,3R)-3-(2-((1S,4S)-2-((S)-1-(2,5-bis(trifluoromethyl)phenyl)ethyl)-2-aza-bicyclo-[2.2.1]heptan-5-yl)chroman-7-yl)-3-cyclopropyl-2-methylpropanoic Acid]
0.688 nM	C[C@H](C(=O)O)[C@H](c1ccc2c(c1)OC(C1CC3CC1CN3[C@H](C)c1cc(C(F)(F)F)ccc1C(F)(F)F)CC2)C1CC1 (stereo partly drawn) [Example 17, (2S,3R)-3-(2-((1S,4S)-2-((R)-1-(2,5-bis(trifluoromethyl)-phenyl)ethyl)-2-azabicyclo-[2.2.1]heptan-5-yl)chroman-7-yl)-3-cyclopropyl-2-methyl-propanic acid]
4.2 nM	C[C@H](C(=O)O)[C@H](c1ccc2c(c1)OC(C1CC3CC1CN3[C@@H](C)c1cc(F)ccc1C(F)(F)F)CC2)C1CC1 (stereo partly drawn) [Example 18, (2S,3R)-3-cyclopropyl-3-(2-((1S,4S)-2-((S)-1-(5-fluoro-2-(trifluoromethyl)phenyl)ethyl)-2-azabicyclo[2.2.1]heptan-5-yl)chroman-7-yl)-2-methyl-propanoic acid]
2.62 nM	C[C@H](C(=O)O)[C@H](c1ccc2c(c1)OC(C1CC3CC1CN3[C@@H](C)c1cc(F)ccc1C(F)(F)F)CC2)C1CC1 (stereo partly drawn) [Example 19, (2S,3R)-3-cyclopropyl-3-(2-((1S,4S)-2-((S)-1-(5-fluoro-2-(trifluoromethyl)phenyl)ethyl)-2-azabicyclo[2.2.1]heptan-5-yl)chroman-7-yl)-2-methyl-propanic acid]
10.6 nM	C[C@H](C(=O)O)[C@H](c1ccc2c(c1)OC(C1CC3C[C@@H]1CN3[C@@H](C)c1cc(F)ccc1C(F)(F)F)CC2)C1CC1 (stereo partly drawn) [Example 38, (2S,3R)-3-cyclopropyl-3-(2-((4S)-2-((S)-1-(5-fluoro-2-(trifluoromethyl)phenyl)ethyl)-2-azabicyclo[2.2.1]heptan-5-yl)chroman-7-yl)-2-methyl-propanoic acid]
2.09 nM	C[C@H](C(=O)O)[C@H](c1ccc2c(c1)OC(C13CCN([C@@H](C)c4cc(F)ccc4OC(F)(F)F)C(C1)C3)CC2)C1CC1 (stereo partly shown) [Example 42]

SMILES	EC50
C[C@H](C(=O)O)[C@H](c1ccc2c(c1)OC(C1CC3CCC(C1)N3[C@@H](C)c1cc(C(F)(F)F)ccc1C(F)(F)F)CC2)C1CC1 (stereo partly drawn) [Example 13, (2S,3R)-3-(2-((1R5S)-8-((S)-1-(2,5-bis(trifluoromethyl)phenyl)ethyl)-8-azabicyclo[3.2.1]octan-3-yl)chroman-7-yl)-3-cyclopropyl-2-methylpropanoic Acid]	11.9 nM
C[C@H](C(=O)O)[C@H](c1ccc2c(c1)OC(C1CC3CCC(C1)N3[C@H](C)c1cc(C(F)(F)F)ccc1C(F)(F)F)CC2)C1CC1 (stereo partly drawn) [Example 14, (2S,3R)-3-(2-((1R,5S)-8-((R)-1-(2,5-bis(trifluoro-methyl)phenyl)ethyl)-8-azabicyclo[3.2.1]octan-3-yl)chroman-7-yl)-3-cyclopropyl-2-methyl-propanoic acid]	11.1 nM
C[C@H](C(=O)O)[C@H](c1ccc2c(c1)OC(C1CC3CCC(C1)N3[C@H](C)c1cc(F)ccc1C(F)(F)F)CC2)C1CC1 (stereo partly drawn) [Example 15, (2S,3R)-3-cyclopropyl-3-(2-((1R,5S)-8-((R)-1-(5-fluoro-2-(trifluoromethyl)-phenyl)ethyl)-8-aza-bicyclo[3.2.1]octan-3-yl)chroman-7-yl)-2-methylpropanoic acid]	17.5 nM
